According to patent US6355799B1, “Substituted benzene compounds, process for their preparation, and herbicidal and defoliant compositions containing them” (ISK Americas Incorporated, priority 1997, dated 2002):

Tests used:
Type in all cases: in vivo
[1] = tested on: barnyardgrass (Echinochloa crus-galli, ECHCG); assay: Pre-emerge test, greenhouse herbicide activity screening; conditions: pre-emerge, rated 14 days after application, 0 = no damage, 100 = complete death
Summary of the method: (§1)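 Rating: 0–100 visual injury, 14 DAA. Application: acetone, 187 l/ha, 15–1000 g ai/ha, flat-fan track sprayer with nozzle 40–45 cm above soil or canopy. Post-emerge runs used 0.25% v/v surfactant on 2–3 leaf plants.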

[2] = tested on: green foxtail (Setaria viridis, SETVI); assay: as above; conditions: pre-emerge, rated 14 days after application, 0 = no damage, 100 = complete death
Summary of the method: as §1

[3] = tested on: ivyleaf morningglory (Ipomoea hederacea, IPOHE); assay: as above; conditions: pre-emerge, rated 14 days after application, 0 = no damage, 100 = complete death
Summary of the method: as §1

[4] = tested on: johnsongrass (Sorghum halepense, SORHA); assay: as above; conditions: pre-emerge, rated 14 days after application, 0 = no damage, 100 = complete death
Summary of the method: as §1

[5] = tested on: lambsquarters (Chenopodium album, CHEAL); assay: as above; conditions: pre-emerge, rated 14 days after application, 0 = no damage, 100 = complete death
Summary of the method: as §1

[6] = tested on: large crabgrass (Digitaria sanguinalis, DIGSA); assay: as above; conditions: pre-emerge, rated 14 days after application, 0 = no damage, 100 = complete death
Summary of the method: as §1

[7] = tested on: sicklepod (Cassia obtusifolia, CASOB); assay: as above; conditions: pre-emerge, rated 14 days after application, 0 = no damage, 100 = complete death
Summary of the method: as §1

[8] = tested on: velvetleaf (Abutilon theophrasti, ABUTH); assay: as above; conditions: pre-emerge, rated 14 days after application, 0 = no damage, 100 = complete death
Summary of the method: as §1

[9] = tested on: barnyardgrass (Echinochloa crus-galli, ECHCG); assay: Post-emerge test, greenhouse herbicide activity screening; conditions: Echinochloa crus-galli, post-emergence, 336 h, phytotoxicity rating 0-100 (0 no damage, 100 complete death), 14 days after application, read-out: Post-emerge Herbicidal Activity ECHCG
Summary of the method: as §1

[10] = tested on: green foxtail (Setaria viridis, SETVI); assay: as above; conditions: Setaria viridis, post-emergence, 336 h, phytotoxicity rating 0-100 (0 no damage, 100 complete death), 14 days after application, read-out: Post-emerge Herbicidal Activity SETVI
Summary of the method: as §1

[11] = tested on: ivyleaf morningglory (Ipomoea hederacea, IPOHE); assay: as above; conditions: Ipomoea, post-emergence, 336 h, phytotoxicity rating 0-100 (0 no damage, 100 complete death), 14 days after application, read-out: Post-emerge Herbicidal Activity IPOHE
Summary of the method: as §1

[12] = tested on: johnsongrass (Sorghum halepense, SORHA); assay: as above; conditions: Sorghum halepense, post-emergence, 336 h, phytotoxicity rating 0-100 (0 no damage, 100 complete death), 14 days after application, read-out: Post-emerge Herbicidal Activity SORHA
Summary of the method: as §1

[13] = tested on: lambsquarters (Chenopodium album, CHEAL); assay: as above; conditions: Chenopodium album, post-emergence, 336 h, phytotoxicity rating 0-100 (0 no damage, 100 complete death), 14 days after application, read-out: Post-emerge Herbicidal Activity CHEAL
Summary of the method: as §1

[14] = tested on: sicklepod (Cassia obtusifolia, CASOB); assay: as above; conditions: Senna obtusifolia, post-emergence, 336 h, phytotoxicity rating 0-100 (0 no damage, 100 complete death), 14 days after application, read-out: Post-emerge Herbicidal Activity CASOB
Summary of the method: as §1

[15] = tested on: velvetleaf (Abutilon theophrasti, ABUTH); assay: as above; conditions: Abutilon theophrasti, post-emergence, 336 h, phytotoxicity rating 0-100 (0 no damage, 100 complete death), 14 days after application, read-out: Post-emerge Herbicidal Activity ABUTH
Summary of the method: as §1

In the case of Cn1c(C(F)(F)F)cc(=O)n(-c2c(F)cc(Cl)c(O)c2N)c1=O [Compound 1-16, 3-(2-amino-4-chloro-6-fluoro-3-hydroxyphenyl)-1-methyl-6-trifluoromethyl-2,4(1H, 3H)-pyrimidinedione], the “Pre-emerge Herbicidal Activity ECHCG (phytotoxicity rating, scale 0-100)” value ([1]; 63 g ai/ha) is reported as 0, the “Pre-emerge Herbicidal Activity ECHCG (phytotoxicity rating, scale 0-100)” value ([1]; 250 g ai/ha) is reported as 0 and the “Pre-emerge Herbicidal Activity SETVI (phytotoxicity rating, scale 0-100)” value ([2]; 63 g ai/ha) is reported as 0. The “Pre-emerge Herbicidal Activity SETVI (phytotoxicity rating, scale 0-100)” value ([2]; 250 g ai/ha) was 0, the “Pre-emerge Herbicidal Activity IPOHE (phytotoxicity rating, scale 0-100)” value ([3]; 63 g ai/ha) was 0 and the “Pre-emerge Herbicidal Activity IPOHE (phytotoxicity rating, scale 0-100)” value ([3]; 250 g ai/ha) was 0. The “Pre-emerge Herbicidal Activity SORHA (phytotoxicity rating, scale 0-100)” value ([4]; 63 g ai/ha) was 0, the “Pre-emerge Herbicidal Activity SORHA (phytotoxicity rating, scale 0-100)” value ([4]; 250 g ai/ha) was 0 and the “Pre-emerge Herbicidal Activity CHEAL (phytotoxicity rating, scale 0-100)” value ([5]; 63 g ai/ha) was 0. The “Pre-emerge Herbicidal Activity CHEAL (phytotoxicity rating, scale 0-100)” value ([5]; 250 g ai/ha) was 70, the “Pre-emerge Herbicidal Activity DIGSA (phytotoxicity rating, scale 0-100)” value ([6]; 63 g ai/ha) was 0 and the “Pre-emerge Herbicidal Activity DIGSA (phytotoxicity rating, scale 0-100)” value ([6]; 250 g ai/ha) was 0. The “Pre-emerge Herbicidal Activity CASOB (phytotoxicity rating, scale 0-100)” value ([7]; 63 g ai/ha) was 0, the “Pre-emerge Herbicidal Activity CASOB (phytotoxicity rating, scale 0-100)” value ([7]; 250 g ai/ha) was 0 and the “Pre-emerge Herbicidal Activity ABUTH (phytotoxicity rating, scale 0-100)” value ([8]; 63 g ai/ha) was 0. For the same molecule, the “Pre-emerge Herbicidal Activity ABUTH (phytotoxicity rating, scale 0-100)” value ([8]; 250 g ai/ha) was 0, the pest or weed control at 63 g/ha ([9]; 63 g ai/ha) was 0% and the pest or weed control at 250 g/ha ([9]; 250 g ai/ha) was 0%. For the same molecule, the pest or weed control at 63 g/ha ([10]; 63 g ai/ha) was 0%, the pest or weed control at 250 g/ha ([10]; 250 g ai/ha) was 0% and the pest or weed control at 63 g/ha ([11]; 63 g ai/ha) was 20%. For the same molecule, the pest or weed control at 250 g/ha ([11]; 250 g ai/ha) was 50%, the pest or weed control at 63 g/ha ([12]; 63 g ai/ha) was 0% and the pest or weed control at 250 g/ha ([12]; 250 g ai/ha) was 0%. The pest or weed control at 63 g/ha ([13]; 63 g ai/ha) was 30%, the pest or weed control at 250 g/ha ([13]; 250 g ai/ha) was 60% and the pest or weed control at 63 g/ha ([14]; 63 g ai/ha) was 0%. The pest or weed control at 250 g/ha ([14]; 250 g ai/ha) was 0%, the pest or weed control at 63 g/ha ([15]; 63 g ai/ha) was 30% and the pest or weed control at 250 g/ha ([15]; 250 g ai/ha) was 50%.
